Measured values published in patent publication US20090170758A1, “COMPOSITIONS COMPRISING PULMONARY SURFACTANTS AND A POLYMYXIN HAVING IMPROVED SURFACE PROPERTIES” (Chiesi Farmaceutici S.p.A., priority 2002, published 2009).

Experiment: Spreading experiments on a modified Wilhelmy balance
Assay type: physicochemical
Settings: Curosurf diluted to 20 mg/ml, 10 microl
Procedure: Experiments were performed at 37° C. using a modified Wilhelmy balance with a surface area of 20 cm^2. Standard amounts of Curosurf at various concentrations (10-80 mg/ml) were applied onto a hypophase of saline, approximately 40 mm from the dipping plate. In some experiments, CaCl2 (2 mM), dextran (30 mg/ml), or polymyxin B (2% on the weight of the surfactant, i.e. 0.4 mg/ml) was added to diluted surfactant material (20 mg/ml). The effect of albumin at low concentration (0.1 mg/ml) added to the hypophase was also investigated. Surface tension, measured 1 sec after administration of the sample was used as a parameter combining spreading and film formation by adsorption from the hypophase.

[1] = agent added to surfactant (CaCl2 2 mM, dextran 30 mg/ml, polymyxin B 2% = 0.4 mg/ml), no albumin
[2] = agent added to surfactant, albumin 0.1 mg/ml added to the hypophase

Surface tension at 1 sec (mN/m) [1] [mN/m] | Surface tension at 1 sec (mN/m) [2] [mN/m] | Compound
52 | 70 | [Ca+2].[Cl-].[Cl-] [CaCl2]
28 | 45 | polymyxin B
